Patent publication US8921320B2, “Targeted osmotic lysis of cancer cells” (Board of Supervisors of Louisiana State University and …, priority 2011, dated 2014)
Entries after “also recorded” stand apart in the source; their conditions may differ. Where two headings read alike, the source gives them in different places.

Experiments:
[1] = tested on: muscle, peripheral nerves, heart, and brain; assay type: in vivo, J/Nu mice
Procedure: As an in vivo model of cancer, MDA-MB-231 cells were suspended in matrigel and injected subcutaneously into the backs of 5 nude (J-NU) mice. Each mouse developed 0.75-1.2 cm tumors in 3-5 weeks. The mice were then injected subcutaneously with 10 mg/kg ouabain or saline. After 30 min, the mice were anesthetized with 4% isoflurane, and the tumors exposed through a small incision in the skin. An anode and a cathode were inserted into each tumor, and a train of 120 1 V DC pulses (10 msec, 2 Hz for 1 min) was delivered through the anode and cathode as discussed above. A total of 11 tumors were tested. Three tumors were from mice treated with ouabain and electrically stimulated (O-ES experimental). Of the rest, two were from a mouse treated with saline and not electrically stimulated (S-NS control), three were from mice treated with ouabain but not electrically stimulated (O-NS control), and three were from mice treated with saline and electrically stimulated (S-ES control). The electrical stimulation was repeated 15 and 30 min later. One day later, mice were sacrificed with an overdose of Nat pentobarbital, perfused with 4% buffered paraformaldehyde, and the tumors removed. The tumors were sectioned at 5 μm and stained with hematoxylin and eosin. […]

[2] = tested on: MDA-MB-231 (breast cancer); test: Time to lysis of cultured cancer cells (drug + electrical stimulation); assay type: cell-based; details: 2 V DC, 200 pulses per second, 5 min limit
Text: (§1) We also used two cardiac glycoside drugs that are currently FDA-approved for clinical use, ouabain and digoxin, for in vitro lysis of multiple lines of carcinoma. […] Cell lines were: MDA-MB-231 (breast cancer); MCF-7 (breast cancer; ATCC# HTB-22); LNCaP (prostate cancer; ATCC# CRL-1740); DU145 (prostate cancer; ATCC# HTB-81); MCA-38 (colon cancer; from Dr. Augusto Ochoa); A549 (non-small cell lung cancer; ATCC# CCL-185); and 3LL (non-small cell lung cancer; from Dr. Augusto Ochoa, Louisiana State University, New Orleans, La.). Cells were plated in 35 mm diameter culture dishes in Dulbecco's Modified Eagle's Medium (DMEM, Gibco) supplemented with 4 mM L-glutamine, 1 mM sodium pyruvate and 10 μM insulin for 18-24 hr. […] A 2 V DC current, 200 pulses per second was passed across individual cells using a Grass Model SD9 stimulator (Grass Instruments, Quincy, Mass.) through platinum wire electrodes held in place with a David Kopf Instrument micromanipulator (Tarzana, Calif.), and the time to lysis was measured. Video recordings of representative experiments were prepared digitally using a Canon Vixia HFM400 camera attached to Leica DM IL microscope, and are available upon request. […] All of the cancer cells lysed, with the time to lysis faster for the cells with the largest known expression of VGSCs.

[3] = tested on: 3LL (non-small cell lung cancer); test: as above; assay type: cell-based; details: 2 V DC, 200 pulses per second, 5 min limit
Text: as §1

LNCaP (prostate cancer) = test: as above; assay type: cell-based; details: 2 V DC, 200 pulses per second, 5 min limit
Text: as §1

MCA-38 (colon cancer) = test: as above; assay type: cell-based; details: 2 V DC, 200 pulses per second, 5 min limit
Text: as §1

DU145 (prostate cancer) = test: as above; assay type: cell-based; details: 2 V DC, 200 pulses per second, 5 min limit
Text: as §1

[4] = tested on: MDA-MB-231 breast cancer cells; test: cells; assay type: cell-based; details: alamar blue added after 1 hr, read 4 hr later
Procedure: The effect of the combination of ouabain (a sodium pump inhibitor) and veratridine (a sodium […]) on viability of cultured MDA-MB-231 and MCF-7 breast cancer cells was assessed. The former cells over-express VGSCs by more than 1000-fold, whereas the latter cells over-express VGSCs by 100-fold (24). MDA-MB-231 cells were cultured in DMEM, whereas MCF-7 cells were cultured in DMEM+10 μM insulin. After centrifugation, both cell lines were re-suspended in DMEM+10 μM insulin to assure normal functioning of Na^+, K^+-ATPase, and approximately 5000 cells were added to each well in a 96-well plate in a volume of 100 μl. After 18 hr, the media was aspirated, and the cells were treated with 100 μl DMEM+10 μM insulin (“media”) alone, media+100 nM ouabain, media+30 μM veratridine, or media+100 nM ouabain+30 μM veratridine. After 1 hr, […] alamar blue was added to each well, and cell viability determined 4 hr after this addition. All determinations were obtained in quadruplicate, and the experiment repeated three times. […] Veratridine alone reduced viability of MDL-MB-231 cells by 15% (FIG. 1) compared to media alone-treated cells. In this initial experiment, ouabain combined with veratridine produced a 30% reduction in cell viability. In MCF-7 cells, none of the treatments affected cell viability (Data not shown). […]

[5] = tested on: MDA-MB-231 breast cancer cells; assay type: cell-based
Procedure: The effectiveness of TOL has been tested using an in vitro model for breast cancer. MDA-MB-231 breast cancer cells were cultured to complete confluency in 96-well plates. These breast cancer cells are known to over-express VGSCs by 1400-fold. These cells were exposed to Dulbecco's modified Eagle's medium (DMEM), or the cardiac glycoside drugs (known sodium pump inhibitors) ouabain (10 pM-100 nM; Sigma Chemical Co., St. Louis, Mo.) or digitoxin (100 pM-1 μM; Sigma) dissolved in DMEM for 30 min. After exposure to the sodium pump inhibitors, an electric current (0 V, 100 mV, or 1 V DC) was passed across the cells using an anode and a cathode placed touching the bottom of each well or an etched circuit in the bottom of the plate. The electric current was generated using a Grass Model SD9 stimulator (Grass Instruments, Quincy, Mass.) through platinum wire electrodes.
Initially we cultured MDA-MB-231 (ATCC, Manassas, Va., cat #HTB-26) breast cancer cells to complete confluency in 96-well plates. These cells over-express VGSCs by 100-fold. […] An electric current (0 V, 100 mV, or 1 V DC) was passed across the cells by means of an anode and a cathode placed touching the bottom of each well as in Example 1.

MDA-MB-231 tumors [6] = test: In vivo TOL in breast cancer xenografts, tumor histology (hematoxylin and eosin); parameters: species or system nude (J-NU) mice
Procedure: As an in vivo model of cancer, MDA-MB-231 cells were suspended in matrigel and injected subcutaneously into the backs of 5 nude (J-NU) mice. Each mouse developed 0.75-1.2 cm tumors in 3-5 weeks. The mice were then injected subcutaneously with 10 mg/kg ouabain or saline. After 30 min, the mice were anesthetized with 4% isoflurane, and the tumors exposed through a small incision in the skin. An anode and a cathode were inserted into each tumor, and a train of 120 1 V DC pulses (10 msec, 2 Hz for 1 min) was delivered through the anode and cathode as discussed above. A total of 11 tumors were tested. Three tumors were from mice treated with ouabain and electrically stimulated (O-ES experimental). Of the rest, two were from a mouse treated with saline and not electrically stimulated (S-NS control), three were from mice treated with ouabain but not electrically stimulated (O-NS control), and three were from mice treated with saline and electrically stimulated (S-ES control). The electrical stimulation was repeated 15 and 30 min later. One day later, mice were sacrificed with an overdose of Nat pentobarbital, perfused with 4% buffered paraformaldehyde, and the tumors removed. The tumors were sectioned at 5 μm and stained with hematoxylin and eosin. […] The other two mice in the O-ES group had tumors that were not highly vascularized, and thus the ouabain could not efficiently distribute to the tumor cells.
As an in vivo model of cancer, we injected 4 million MDA-MB-231 cells, suspended in matrigel, subcutaneously into the backs of 5 nude (J-NU) mice. Each mouse developed 0.75-1.2 cm tumors in 3-5 weeks. The mice were injected subcutaneously with 10 mg/kg ouabain or saline and then after 30 min anesthetized with 4% isoflurane. The tumors of the mice were exposed through a small incision in the skin. An anode and a cathode were inserted into each tumor, and a train of 120 1 V DC pulses (10 msec, 2 pulses per second for 1 min) using the Grass SD9 stimulator was delivered through a copper anode and cathode. Some controls received no stimulation. A total of 11 tumors were tested. Three tumors were from mice treated with 10 mg/kg s.c. ouabain and electrically stimulated (O-ES experimental). […]
This experiment was repeated using 10 mice (2 per control group and 4 in the experimental group.) Four million MDA-MB-231 cells suspended in 50% matrigel were injected s.c. in J/Nu mice, and tumors allowed to grow until visibly vascularized (reddish in appearance.) Stimulation parameters were 10 V DC, 1 msec pulses @ 200 pulses per second. […] One day later, animals were sacrificed, perfused, tumors removed, and prepared for hematoxylin and eosin staining Stained sections from each of the tumors were evaluated by a trained histologist.

MCF-7 (breast cancer) = test: Time to lysis of cultured cancer cells (drug + electrical stimulation); assay type: cell-based; details: 100 nM ouabain, 2 V DC, 200 pulses per second, 5 min limit
Procedure: (§2) Cell lines were: MDA-MB-231 (breast cancer); MCF-7 (breast cancer; ATCC# HTB-22); LNCaP (prostate cancer; ATCC# CRL-1740); DU145 (prostate cancer; ATCC# HTB-81); MCA-38 (colon cancer; from Dr. Augusto Ochoa); A549 (non-small cell lung cancer; ATCC# CCL-185); and 3LL (non-small cell lung cancer; from Dr. Augusto Ochoa, Louisiana State University, New Orleans, La.). Cells were plated in 35 mm diameter culture dishes in Dulbecco's Modified Eagle's Medium (DMEM, Gibco) supplemented with 4 mM L-glutamine, 1 mM sodium pyruvate and 10 μM insulin for 18-24 hr. […] A 2 V DC current, 200 pulses per second was passed across individual cells using a Grass Model SD9 stimulator (Grass Instruments, Quincy, Mass.) through platinum wire electrodes held in place with a David Kopf Instrument micromanipulator (Tarzana, Calif.), and the time to lysis was measured. Video recordings of representative experiments were prepared digitally using a Canon Vixia HFM400 camera attached to Leica DM IL microscope, and are available upon request.

[7] = tested on: A549 (non-small cell lung cancer); test: as above; assay type: cell-based; details: 100 nM ouabain, 2 V DC, 200 pulses per second, 5 min limit
Procedure: as §2

MDA-MB-231 tumors [8] = test: Tumor growth following a single TOL treatment; assay type: in vivo, J/Nu mice; details: single treatment Day 0: ouabain 10 mg/kg + 2×1 min electrical stimulation; cross-sectional area followed three weeks; p<0.01
Procedure: When vascularized tumors became apparent, mice were divided into 4 treatment groups: Saline-No stimulation; Saline-Stimulation (2×1 min electrical stimulation); Ouabain (10 mg/kg)-No stimulation; and Ouabain (10 mg/kg)-Stimulation (2×1 min electrical stimulation). Only a single treatment was given for each treatment group on Day 0 of FIG. 2. Tumor cross-sectional area was then measured with calipers every-other day for three weeks. The tumor growth was expressed as a percent pre-treatment size and plotted against time.

C[C@@H]1O[C@@H](O[C@H]2C[C@@H](O)[C@]3(CO)[C@H]4[C@H](O)C[C@]5(C)[C@@H](C6=CC(=O)OC6)CC[C@]5(O)[C@@H]4CC[C@]3(O)C2)[C@H](O)[C@H](O)[C@H]1O [ouabain]
lysis in healthy muscle, peripheral nerves, heart, and brain ([1]; 10 mg/kg ouabain s.c., tissues electrically stimulated after 30 min, one day later): None of these tissues showed signs of lysis
cell death in normal muscle taken from the base of the tumor ([1]; 10 mg/kg s.c. ouabain + electrical stimulation (1 V DC), same mouse as the tumor with 80% cell death): no sign of cell death
Mean time-to-lysis ± SEM, Ouabain + Stimulation ([2]; 100 nM ouabain 15-45 min): 69.3 ± 4.82 s
Mean time-to-lysis ± SEM, Ouabain + Stimulation ([3]; 100 nM ouabain): 115.9 ± 3.33 s
Mean time-to-lysis ± SEM, Ouabain + Stimulation (LNCaP (prostate cancer); 100 nM ouabain): 143.1 ± 5.78 s
Mean time-to-lysis ± SEM, Ouabain + Stimulation (MCA-38 (colon cancer); 100 nM ouabain): 74.0 ± 1.0 s
Mean time-to-lysis ± SEM, Ouabain + Stimulation (DU145 (prostate cancer); 100 nM ouabain): 81.6 ± 3.96 s
change in cell viability compared to media-only controls ([4]; 100 nM ouabain alone): no decrease in cell viability
cancer cell death in wells ([5]; ≧1 nM ouabain 30 min, then 100 mV or 1 V DC electric current, 6 of 24 wells (ouabain or digoxin)): every cancer cell died; also recorded: all cancer cells died
lysis in tumors that were not highly vascularized (MDA-MB-231 tumors [6]; 10 mg/kg s.c. ouabain + electrical stimulation (1 V DC), the other two mice of the O-ES group): no lysis was seen
tumor cell death after treatment (MDA-MB-231 tumors [6]; 10 mg/kg s.c. ouabain + electrical stimulation (120 1 V DC pulses, repeated 15 and 30 min later), one of three O-ES tumors, one day later): 80%
cell lysis in tumors, ouabain without electrical stimulation (O-NS control) (MDA-MB-231 tumors [6]; 10 mg/kg s.c. ouabain, no stimulation, three tumors, one day later): None of the tumors in any of the other three treatments showed any sign of cell lysis; also recorded: None of the tumors in any of the three control treatments showed any sign of cell lysis
lysis in control tumors (incl. ouabain without stimulation) (MDA-MB-231 tumors [6]; repeat experiment, 10 mice, 2 per control group, 10 mg/kg s.c. ouabain): none of the controls showed any sign of lysis
Mean time-to-lysis ± SEM, Ouabain + Stimulation (MCF-7 (breast cancer)): 170.5 ± 15.35 s
Mean time-to-lysis ± SEM, Ouabain + Stimulation [7]: 149.9 ± 11.70 s
tumor size smaller than in the three other groups (MDA-MB-231 tumors [8]): 70%

COc1ccc(C(=O)O[C@H]2CC[C@@]3(C)[C@@H]4CC[C@H]5[C@]6(O)C[C@H](O)[C@@]7(O)[C@@H](CN8C[C@@H](C)CC[C@H]8[C@@]7(C)O)[C@]6(O)C[C@@]53O[C@]24O)cc1OC [veratridine]
cytotoxicity at 30 µM ([4]; Homo sapiens, 30 μM veratridine alone, read-out: reduction in cell viability compared to media alone): 15%

C[C@H]1O[C@@H](O[C@H]2[C@@H](O)C[C@H](O[C@H]3[C@@H](O)C[C@H](O[C@H]4CC[C@@]5(C)[C@H](CC[C@@H]6[C@@H]5C[C@@H](O)[C@]5(C)[C@@H](C7=CC(=O)OC7)CC[C@]65O)C4)O[C@@H]3C)O[C@@H]2C)C[C@H](O)[C@@H]1O [digoxin]
Mean time-to-lysis ± SEM, Digoxin + Stimulation ([2]; 1 μM digoxin 15-45 min): 68.39 ± 7.31 s
Mean time-to-lysis ± SEM, Digoxin + Stimulation ([3]; 1 μM digoxin): 163.75 ± 8.27 s
Mean time-to-lysis ± SEM, Digoxin + Stimulation (LNCaP (prostate cancer); 1 μM digoxin): 122.9 ± 3.13 s
Mean time-to-lysis ± SEM, Digoxin + Stimulation (MCA-38 (colon cancer); 1 μM digoxin): 122.7 ± 9.02 s
Mean time-to-lysis ± SEM, Digoxin + Stimulation (DU145 (prostate cancer); 1 μM digoxin): 111.3 ± 9.7 s
cancer cell death in wells [5]: every cancer cell died; also recorded: all cancer cells died
